In patent US8426569B2, “DNA capable of being amplified by PCR with high selectivity and high efficiency” (Riken, priority 2008, dated 2013):

Assays:
DeepVent DNA polymerase [1] = target: T1, DeepVent DNA polymerase (Pyrococcus sp., UniProt Q51334, DEL493-1029); format: biochemical
[2] = target: Klenow fragment of DNA polymerase I (KF exo-) (Escherichia coli, UniProt P00582, D355A/E357A)
DeepVent DNA polymerase [3] = target: T1, DeepVent DNA polymerase; format: biochemical; remark: listed apart in the source

T1 sequence (Q51334 with tags, fused parts or gaps DEL493-1029): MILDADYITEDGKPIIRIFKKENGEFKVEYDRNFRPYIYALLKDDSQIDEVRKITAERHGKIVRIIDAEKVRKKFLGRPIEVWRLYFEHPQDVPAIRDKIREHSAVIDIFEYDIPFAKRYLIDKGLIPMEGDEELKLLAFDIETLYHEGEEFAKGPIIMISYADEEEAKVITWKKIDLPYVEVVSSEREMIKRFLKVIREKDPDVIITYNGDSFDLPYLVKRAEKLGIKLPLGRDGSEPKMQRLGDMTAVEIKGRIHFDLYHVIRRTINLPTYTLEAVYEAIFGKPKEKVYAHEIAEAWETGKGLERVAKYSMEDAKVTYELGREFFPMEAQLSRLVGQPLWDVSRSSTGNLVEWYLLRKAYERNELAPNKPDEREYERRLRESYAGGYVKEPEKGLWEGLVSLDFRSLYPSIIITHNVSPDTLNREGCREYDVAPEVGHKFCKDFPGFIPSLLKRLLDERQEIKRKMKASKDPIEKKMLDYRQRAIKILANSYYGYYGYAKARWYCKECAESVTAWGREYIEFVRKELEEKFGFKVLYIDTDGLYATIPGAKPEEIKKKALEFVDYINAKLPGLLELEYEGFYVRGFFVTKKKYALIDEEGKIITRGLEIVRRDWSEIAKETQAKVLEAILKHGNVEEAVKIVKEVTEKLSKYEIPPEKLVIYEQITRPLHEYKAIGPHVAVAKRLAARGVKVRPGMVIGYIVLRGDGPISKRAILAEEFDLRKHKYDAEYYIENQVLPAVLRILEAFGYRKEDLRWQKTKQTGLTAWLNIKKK
Klenow fragment of DNA polymerase I (KF exo-), sequence (P00582 324-928 D355A/E357A limits assumed): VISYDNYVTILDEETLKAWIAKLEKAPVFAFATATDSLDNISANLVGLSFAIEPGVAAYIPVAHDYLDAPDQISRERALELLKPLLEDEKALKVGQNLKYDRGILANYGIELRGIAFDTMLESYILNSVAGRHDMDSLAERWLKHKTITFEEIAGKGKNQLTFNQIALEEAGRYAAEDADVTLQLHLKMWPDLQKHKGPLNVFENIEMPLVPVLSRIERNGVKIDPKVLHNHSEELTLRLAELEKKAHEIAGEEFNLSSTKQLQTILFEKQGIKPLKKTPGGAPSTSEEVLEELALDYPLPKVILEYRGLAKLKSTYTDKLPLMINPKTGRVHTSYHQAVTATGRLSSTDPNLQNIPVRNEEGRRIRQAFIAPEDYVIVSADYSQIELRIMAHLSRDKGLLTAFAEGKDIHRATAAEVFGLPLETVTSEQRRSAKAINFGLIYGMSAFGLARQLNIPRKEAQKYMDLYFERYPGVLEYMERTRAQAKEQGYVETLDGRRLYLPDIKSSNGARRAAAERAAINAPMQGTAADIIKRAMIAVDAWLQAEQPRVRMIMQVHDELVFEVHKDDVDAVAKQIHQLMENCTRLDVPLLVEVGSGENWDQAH

For NCCCCCC(=O)NCC#Cc1cc([N+](=O)[O-])n([C@H]2C[C@H](O)[C@@H](COP(=O)(O)OP(=O)(O)OP(=O)(O)O)O2)c1 [NH2-hx-dPnTP, 1-(2-deoxy-β-D-ribofuranosyl)-4-[3-(6-amino-hexanamide)-1-propynyl]-2-nitropyrrole 5′-triphosphate], which “amplification of the DNA fragment containing Ds” value (DeepVent DNA polymerase [1]) is on record?
The value was “about 10^8 times”.

What about the “conservation of the unnatural base Ds in DNA (sequencing analysis)” value (DeepVent DNA polymerase [1]) of the same compound?
Its value is “almost completely conserved”.

What about the “incorporation efficiency into Ds relative to that of the Pn substrate” value [2] of the same compound?
The value was “about twice”.

What about the “incorporation efficiency into natural bases in the template strand” value [2] of the same compound?
Its value is “lower than the incorporation efficiency into Ds”.

What about the “conservation of both two sites of the unnatural base Ds in DNA (sequencing pattern analysis)” value (DeepVent DNA polymerase [3]) of the same compound?
Its value is “almost completely conserved”.
